Assay results: PMC9635472, “Design, synthesis, and biological evaluation of novel ciprofloxacin derivatives as potential anticancer agents targeting topoisomerase II enzyme” (Journal of Enzyme Inhibition and Medicinal Chemistry, 2022)
Where “and” joins values, the source holds several entries; their conditions need not be identical. Identical values can stand only once.

Legend:
[1] = tested on: T-24 cells; experiment: Apoptosis determination by annexin V-FITC/PI assay, T-24 cells; format: cell-based, human; conditions: at IC50, 24 h
Method: (§1) Apoptosis was evaluated using Annexin V fluorescein isothiocyanate (FITC) and propidium iodide (PI) using the Annexin V-FITC/PI apoptosis detection kit (Biovision, Mountain View, CA # K101-25). According to the manufacturer’s instructions after staining the cells with annexin V fluorescein (FITC) isothiocyanate. […] Cells were centrifuged and washed once with serum-containing media followed by resuspension in 500 µl of binding buffer. Then 5 µl Annexin V-FITC and 5 µl of (PI […]) were added and incubated for 5 min at room temperature in the dark. Analyses were performed using a flow cytometer (EX = 488 nm: Em = 530 nm) using a FITC signal detector and PI staining by a phycoerythrin emission signal detector.
To verify the ability of compounds 6 and 8a to induce apoptosis, a flow cytometry assay was performed using propidium iodide (PI), and immunofluorescent markers of the protein annexin-V. Dual staining for annexin-V and with PI provides the distinction between viable cells, early apoptotic cells, late apoptotic cells, and necrotic cells. […] While compound 8a induced both early and late apoptosis with 21.16- and 114.90-fold more than the control, respectively, and induced total apoptosis and necrosis with 20.1- and 4.28-fold more than the control, sequentially (Figure 14).

[2] = tested on: Human bladder cancer (T-24) cell line; experiment: MTT cell viability assay, T-24 cells; format: cell-based; conditions: bladder cancer cell line T-24, treatment for 24 h (table title), means of three experiments, read-out: IC50 (μM* ± SD) T-24
Method: (§2) Human bladder cancer (T-24) and human prostate carcinoma (PC-3) cell lines were obtained from American Type Culture Collection (ATCC; Manassas, VA USA). Cells were maintained in Dulbecco’s modified Eagle medium with 10% foetal bovine serum at 37 °C and 5% CO2. All the operations were carried out under strict aseptic conditions. The culture medium was removed to a centrifuge tube containing 9.0 ml complete culture medium and spanned at approximately 125 × g for 5 to 7 min. The cell layer was rinsed with 0.25% (w/v) trypsin- […] EDTA solution by which all traces of serum-containing inhibitor were removed. Trypsin EDTA solution 2.0 to 3.0 ml was added to a flask and cells were monitored under an inverted microscope until the cell layer was dispersed (usually within 5–15 min). A complete growth medium was added (6.0–8.0 ml), and cells were aspirated by gentle pipetting. The cell pellet was suspended with the recommended complete medium and dispensed into a 75 cm^2 culture flask. The culture vessel containing the complete growth medium was placed in the incubator for 24 h to at 37 °C. The cells were treated with different concentrations (0.39, 1.60, 6.25, 25, and 100 μg/ml) of each of the test compounds or doxorubicin, […], then the plates were examined under the inverted microscope and finally the MTT assay was carried out.
(§3) Anti-cancer activity of the newly synthesised compounds was evaluated in vitro against both T-24 and PC-3 cell lines according to the MTT method. Cells were seeded into 96-well plates (flat bottom) at a density of 10 000 cells/well for 24 h. The vial of MTT to be used was reconstituted with 3 ml of medium or balanced salt solution without phenol red and serum. then, a reconstituted MTT vial was added in an amount equal to 10% of the culture medium volume. Cultures were incubated for 2–4 h depending on the cell type and maximum cell density and removed from the incubator and the formazan crystals were dissolved via the addition of an amount of MTT solubilisation solution (M-8910) equal to the original culture medium volume. ROBONIK P2000 spectrophotometer at a wavelength of 570 nm was used to measure the colour intensity spectrophotometrically. The survival curve of both T-24 and PC-3 cells was obtained by plotting the percentage of surviving cells against the drug after each compound. The IC50 value for each test compound and the reference drug doxorubicin was calculated.
(§4) In this study, all the newly synthesised CP derivatives were subjected to anticancer activity evaluation against bladder (T-24) and prostate cancer (PC-3) cell lines. The compounds were evaluated for their activity using 5 doses determinations (100 μg/ml, 25 μg/ml, 6.25 μg/ml, 1.60 μg/ml, and 0.39 μg/ml). Their half-maximal inhibitory concentration (IC50) values were measured. Doxorubicin was chosen as a reference anticancer drug[65].

[3] = tested on: PC-3 cells; experiment: Cell cycle analysis (propidium iodide flow cytometry), PC-3 cells; format: cell-based, human; conditions: for phase of cell cycle arrest: PC-3 cells at IC50 concentrations
Method: (§5) The cell cycle was done using a propidium iodide flow cytometry kit (Abcam, ab139418) according to the manufacturer’s instructions. […] After treatment, the cells were washed twice with ice-cold phosphate buffer saline, then centrifuged and fixed using ice-cold 66% (v/v) ethanol, washed with phosphate buffer saline re-suspended with 0.10 mg/ml, and stained with 200 µl propidium iodide. Cells were analysed by flow cytometry. The cell cycle distributions were calculated using cell–quest software (Bectopn Dickinson).
Topoisomerase inhibitors cause DNA damage which is related to G1/S and S phase arrest. Cell cycle arrest prevents the replication of damaged DNA. In PC-3 cell line compounds 6 and 8a probably arrested the cell cycle in the G1 phase by inhibition of Cyclin D–Cdk4–Cdks complex, however in the T-24 cell line, they might arrest the cell cycle in the S phase by the inhibition of both Cyclin D–Cdk4–Cdks complex and cyclins E1–E2/Cdk2, which promote G1/S transition.

[4] = tested on: T-24 cells; experiment: Cell cycle analysis (propidium iodide flow cytometry), T-24 cells; format: cell-based, human; conditions: for phase of cell cycle arrest: T-24 cancer cells
Method: as §5
While the accumulation of the cells in the S phase might result from the cell cycle arrest of T-24 cells in the S phase.

[5] = tested on: human prostate carcinoma (PC-3) cell line; experiment: MTT cell viability assay, PC-3 cells; format: cell-based; conditions: prostate cancer cell line PC-3, treatment for 24 h (table title), means of three experiments, read-out: IC50 (μM* ± SD) PC-3
Method: as §2, §3, §4

[6] = tested on: PC-3 cells; experiment: Apoptosis determination by annexin V-FITC/PI assay, PC-3 cells; format: cell-based, human; conditions: at IC50, 24 h
Method: as §1
While compound 8a induced both early and late apoptosis with 41.15- and 76.77-fold more than the control, respectively, and induced total apoptosis and necrosis with 14.87- and 2.44-fold more than the control, sequentially (Figure 16).

Row | SMILES | early apoptosis, fold more than the control [1] [fold] | late apoptosis, fold more than the control [1] [fold] | necrosis, fold more than the control [1] [fold] | total apoptosis, fold more than the control [1] | IC50 [2] [µM] | phase of cell cycle arrest [3] | decrease in the percentage of cells at the G2/M phase ([3]; PC-3 cells, at IC50, 24 h) [fold] | increase in the percentage of cells at the G1 phase compared to the control ([3]; PC-3 cells, at IC50, 24 h) [fold] | phase of cell cycle arrest [4] | increase in the percentage of cells in the S phase compared to the control ([4]; T-24 cells, at IC50, 24 h) [fold] | IC50 [5] [µM] | early apoptosis, fold more than the control [6] [fold] | late apoptosis, fold more than the control [6] [fold] | necrosis, fold more than the control [6] [fold] | total apoptosis, fold more than the control [6] [fold] | increase in the percentage of cells at pre-G1 compared to the control ([4]; T-24 cells, at IC50, 24 h) [fold]
1 | O=C1CC(=O)N(C(=O)CN2CCN(c3cc4c(cc3F)c(=O)c(C(=O)O)cn4C3CC3)CC2)N1 [Compound 6, 1-cyclopropyl-7-(4-(2-(3,5-dioxopyrazolidin-1-yl)-2-oxoethyl)piperazin-1-yl)-6-fluoro-4-oxo-1,4-dihydroquinoline-3-carboxylic acid] | 16.27 | 83.38 | 6.25 | 16.77 fold and 16.8 fold | 5.68 ± 0.3 | G1-phase cell cycle arrest | 1.5 | 1.16 | S phase | 1.4 | 92.2 ± 4.69 | 54.69 | 31.72 | 1.62 | 13.02 | 
2 | O=C(CN1CCN(c2cc3c(cc2F)c(=O)c(C(=O)O)cn3C2CC2)CC1)NN=C1C(=O)Nc2ccccc21 [Compound 8a, 1-Cyclopropyl-6-fluoro-4-oxo-7-(4-(2-oxo-2-(2-(2-oxoindolin-3-ylidene)hydrazinyl)ethyl)piperazin-1-yl)-1,4-dihydroquinoline-3-carboxylic acid] | 21.16 | 114.90 | 4.28 | 20.1 fold | 3.36 ± 0.19 | G1-phase cell cycle arrest |  | 1.27 | S phase | 1.11 | 11 ± 0.56 | 41.15 | 76.77 | 2.44 | 14.87 | 20.1
